Like-named read-outs stand apart in the source and are kept apart here.
Experiments:
RBL-2H3 cells = experiment: Inhibition of serotonin liberation from IgE-sensitized, antigen-stimulated RBL-2H3 cells; format: cell-based; details: Rattus norvegicus, [3H]-serotonin release, IgE-sensitized cells stimulated with specific antigen
Source text: (1) Inhibitory Effects on Various Mediators Release from Rat Basophilic Leukemia Cell Line (RBL-2H3)
RBL-2H3cells (i.e., a cell line originating in rat cells), by stimulation with IgE sepecific antigen, not only release histamine and serotonin but also release and produce cytokines such as TNF α and prostaglandins which are inflammatory mediators. In this experimental system, inhibitory effects on various mediators release were examined by using serotonin as an indication.
The cells were beforehand labeled with [^3H]-labeled serotonin and, at the same time, sensitized with the IgE antibody. After incubating with the compounds of the present invention, they were stimulated with the specific antigen. Then the inhibitory activity of each compound was calculated from the amount of the [^3H]-labeled serotonin thus liberated into the medium due to the stimulation and the amount of [^3H]-labeled serotonin liberated when no compound of the present invention was added.

human basophils = experiment: Inhibition of mediator (histamine, peptide leukotriene) liberation from human basophils stimulated with mite antigen; format: cell-based; details: leukocyte fraction, enzyme immunoassay
Method: (2) Inhibitory Effects on Various Mediators Release from Human Basophils
6 ml of 6% dextran (for separating leukocytes, having a high molecular weight) was added to 20 ml of heparinized blood. After stirring well, the resulting mixture was allowed to stand at 37° C. for 30 min and thus erythrocytes were precipitated. The upper layer was taken up and phosphate buffered saline was added thereto followed by centrifugation at 185 g for 8 minutes to give a crude leukocyte fraction. These cells were subjected to hypotonic hematolysis and then suspended in D-PBS(+) containing 0.1%-BSA. The resulting suspension was used in the subsequent experiment as the leukocyte fraction containing basophils. 0.4 ml of this cell suspension was preliminarily heated to 37° C. for 5 min and then 0.05 ml of a specimen solution was added thereto followed by a pretreatment at 37° C. for 15 min. Next, 0.05 ml of a mite antigen solution was added thereto to induce an antigen-antibody reaction. After 10 min, the reaction was ceased by ice-cooling. Then the reaction mixture was centrifuged again at 185 g for 10 min and histamine and peptide leukotrienes in the resulting supernatant were determined by using enzyme immunoassay kits. From the results of the assay, the activities of the a heterocyclic ring condensed benzothiazine compound of inhibiting the liberation of histamine and peptide leukotriene were determined.
The results are given in Table 2, wherein the term “leukotriene” means peptide leukotriene.

[1] = histamine, read-out: IC50 (μM) in mediator liberation from human basophils: histamine
[2] = peptide leukotriene, read-out: IC50 (μM) in mediator liberation from human basophils: leukotriene

Row | SMILES | IC50 (RBL-2H3 cells) [µM] | IC50 (human basophils; [1]) [µM] | IC50 (human basophils; [2]) [µM]
1 | Cc1cnc2c(c1)N(CCCNCc1ccccc1)c1c(ccc(C)c1C)[S+]2[O-] (centres unmarked) [Example 47] | 3 |  | 
2 | Cc1ccc2c(c1C)N(CCCN)c1cccnc1[S+]2[O-] (centres unmarked) [Example 13] | 3 |  | 
3 | COc1cccc(CNCCCN2c3cnccc3[S+]([O-])c3ccc(C)c(C)c32)c1O (centres unmarked) [Example 37] | 3 | 30 | 30
4 | COc1ccccc1CNCCCN1c2cccnc2[S+]([O-])c2ccc(C)c(C)c21 (centres unmarked) [Example 20] | 5 |  | 
5 | Cc1ccc2c(c1C)N(CCCNCc1ccccc1)c1c(Br)csc1[S+]2[O-] (centres unmarked) [Example 8, 9-(3-benzylaminopropyl)-7,8-dimethyl-3-thieno[1,4]benzothiazine-4-oxide] | 1 | 10 | 3
6 | Cc1ccc2c(c1C)N(CCCNCc1ccccc1)c1ccsc1[S+]2[O-] (centres unmarked) [Example 1, 9-(3-Benzylaminopropyl)-7,8-dimethyl-3-thieno [1,4]benzothiazine-4-oxide] | 2 | 10 to 30 | 10
7 | Cc1ccc2c(c1C)N(CCCN)c1ccsc1[S+]2[O-] (centres unmarked) [Example 3, 9-(3-Aminopropyl)-7,8-dimethyl-3-thieno[1,4]benzothiazine-4-oxide] | 8 |  | 
8 | Cc1ccc2c(c1C)N(CCCNCc1ccc(Cl)cc1Cl)c1cccnc1[S+]2[O-] (centres unmarked) [Example 31] | 2 | 10 to 30 | 10
9 | Cc1ccc2c(c1C)N(CCCNCc1cccc(C)c1O)c1cccnc1[S+]2[O-] (centres unmarked) [Example 18] | 2 | 30 | 10 to 30
10 | COc1c(CNCCCN2c3cccnc3[S+]([O-])c3ccc(C)c(C)c32)ccc(Cl)c1Cl (centres unmarked) [Example 33] | 2 | 10 to 30 | 3 to 10
11 | Cc1ccc2c(c1C)N(CCCNCc1ccccc1)c1cc(Br)cnc1[S+]2[O-] (centres unmarked) [Example 45] | 1 |  | 
12 | COc1ccc(CNCCCN2c3cccnc3[S+]([O-])c3ccc(C)c(C)c32)cc1 (centres unmarked) [Example 25] | 2 |  | 
13 | Cc1ccc2c(c1C)N(CCCNCc1ccccc1)c1cc(C#N)cnc1[S+]2[O-] (centres unmarked) [Example 48] | 4 |  | 
14 | Cc1ccc2c(c1C)N(CCCNCc1cccs1)c1ccsc1[S+]2[O-] (centres unmarked) [Example 4, 7,8-Dimethyl-9-[3-(2-thiophenyl)methylaminopropyl]-3-thieno[1,4]benzothiazine-4-oxide] | 2 | 10 to 30 | 10
15 | Cc1ccc2c(c1C)N(CCCNCN1CCN(Cc3ccccc3)CC1)c1cccnc1[S+]2[O-] (centres unmarked) [Example 26] | 2 |  | 
16 | Cc1ccc2c(c1C)N(CCCCNCc1ccccc1)c1cccnc1[S+]2[O-] (centres unmarked) [Example 19] | 1 |  | 
17 | COc1ccsc1CNCCCN1c2ccsc2[S+]([O-])c2ccc(C)c(C)c21 (centres unmarked) [Example 6] | 2 | 30 | 10 to 30
18 | Cc1ccc2c(c1C)N(CCCNCc1ccccc1O)c1cccnc1[S+]2[O-] (centres unmarked) [Example 16] | 2 | 10 | 10 to 30
19 | Cc1ccc2c(c1C)N(CCCNCc1ccccc1N(C)C)c1cnccc1[S+]2[O-] (centres unmarked) [Example 38] | 4 |  | 
20 | COc1ccc2c(n1)[S+]([O-])c1ccc(C)c(C)c1N2CCCNCc1ccccc1 (centres unmarked) [Example 43] | 2 | 30 | 10

Row | SMILES | IC50 (RBL-2H3 cells) [µM] | IC50 (human basophils; [1]) [µM] | IC50 (human basophils; [2]) [µM]
21 | Cc1ccc2c(c1C)N(CCCNCc1ccccc1)c1cc(Cl)cnc1[S+]2[O-] (centres unmarked) [Example 46] | 2 |  | 
22 | Cc1ccc2c(c1C)N(CCCNCc1ccccc1)c1c(CO)csc1[S+]2[O-] (centres unmarked) [Example 11, 9-(3-benzylaminopropyl)-1-hydroxymethyl-7,8dimethyl-3-thieno[1,4]benzothiazine-4-oxide] | 5 | 10 | 3
23 | Cc1ccc2c(c1C)N(CCCNC(C)(C)c1ccccc1)c1cccnc1[S+]2[O-] (centres unmarked) [Example 34] | 5 |  | 
24 | Cc1ccc2c(c1C)N(CCCNCc1ccccn1)c1cnccc1[S+]2[O-] (centres unmarked) [Example 40] | 4 |  | 
25 | COc1ccc(CNCCCN2c3ccsc3[S+]([O-])c3ccc(C)c(C)c32)o1 (centres unmarked) [Example 5] | 6 |  | 
26 | Cc1ccc2c(c1C)N(CCCNCc1ccccc1)c1c(sc(CO)c1Br)[S+]2[O-] (centres unmarked) [Example 12, 1-Bromo-9-(3-benzylaminopropyl)-2-hydroxymethyl-7,8-dimethyl-3-thieno[1,4]benzothiazine-4-oxide] | 4 | 10 | 3
27 | Cc1ccc2c(n1)[S+]([O-])c1ccc(C)c(C)c1N2CCCNCc1ccccc1 (centres unmarked) [Example 44] | 2 |  | 
28 | Cc1ccc2c(c1C)N(CCCNC(C)(C)c1ccccc1)c1c(Br)csc1[S+]2[O-] (stereo not drawn) [Example 7, 1-Bromo-7,8-dimethyl-9-[3-(α,α-dimethylbenzyl)aminopropyl]-3-thieno[1,4]benzothiazine-4-oxide] | 2 | 3 to 10 | 3 to 10
29 | COc1cccc(CNCCCN2c3cccnc3[S+]([O-])c3ccc(C)c(C)c32)c1 (centres unmarked) [Example 24] | 4 |  | 
30 | Cc1ccc2c(c1C)N(CCCNCc1cccc(F)c1O)c1cnccc1[S+]2[O-] (centres unmarked) [Example 41] | 3 |  | 
31 | COc1ccsc1CNCCCN1c2c(Br)csc2[S+]([O-])c2ccc(C)c(C)c21 (centres unmarked) [Example 9] | 0.5 | 10 to 30 | 3
32 | COc1cccc(CNCCCN2c3cccnc3[S+]([O-])c3ccc(C)c(C)c32)c1O (centres unmarked) [Example 17] | 2 | 10 to 30 | 10 to 30
33 | Cc1ccc2c(c1C)N(CCCN(C)Cc1ccccc1)c1cccnc1[S+]2[O-] (centres unmarked) [Example 35] | 3 |  | 
34 | Cc1ccc2c(c1C)N(CCCNCN1CCN(Cc3ccccc3)CC1)c1cnccc1[S+]2[O-] (centres unmarked) [Example 39] | 3 |  | 
35 | Cc1ccc2c(c1C)N(CCCNC(C)(C)c1ccccc1)c1ccsc1[S+]2[O-] (centres unmarked) [Example 2] |  | 30 | 10 to 30
36 | Cc1ccc2c(c1C)N(CCCNCc1ccccc1)c1cccnc1[S+]2[O-] (centres unmarked) [Example 15] | 0.5 |  | 
37 | CCCOc1ccc2c(n1)[S+]([O-])c1ccc(C)c(C)c1N2CCCNCc1ccccc1 (centres unmarked) [Example 49] | 2 | 10 to 30 | 3
38 | CCOc1ccc2c(n1)[S+]([O-])c1ccc(C)c(C)c1N2CCCNCc1ccccc1 (centres unmarked) [Example 52] | 3 | 10 to 30 | 3
39 | Cc1ccc2c(c1C)N(CCCNCc1ccccc1)c1cnccc1[S+]2[O-] (centres unmarked) [Example 36] | 4 |  | 
40 | Cc1ccc2c(c1C)N(CCCNCc1cccc(F)c1O)c1c(Br)csc1[S+]2[O-] (centres unmarked) [Example 10] | 0.5 | 30 | 3 to 10
